Assay results taken from patent US8481536B2, “Benzotriazine inhibitors of kinases” (TargeGen, Inc., priority 2004, dated 2013).

Molecular target: Recombinant human c-Src (Homo sapiens (Human), UniProt P12931)
Assay: Src kinase inhibition in vitro (luciferase-based residual ATP, KinaseGlo)
Type: biochemical
Conditions: ATP 3 μM, PTK2 substrate, 90 minutes at room temperature
Procedure: (§1) The ability of compounds of the present invention to inhibit the activity of three groups of kinases was tested. Kinases tested included the src family (primarily src and yes), some angiogenic growth factor receptors (Fgfr1, Vegfr, and Pdgfrβ) and the ephrin, EphB4. All kinase reactions were conducted in 96-well plates with a final reaction volume of 50 ul.
After reacting for about 90 minutes at room temperature, residual ATP was determined using a luciferase-based assay (KinaseGlo, Promega Corp.) as a measure of kinase activity. Data from four wells were then averaged and used to determine IC50 values for the test compounds (Prism software package, GraphPad Software, San Diego Calif.).
(§2) The test results for inhibition of Src kinase are presented in Table 1, and the test results for inhibition of some other kinases (i.e., Yes, EphB4, and Pdgfrβ) are presented in Table 2.

Sequence of Recombinant human c-Src (P12931 whole entry, looked up): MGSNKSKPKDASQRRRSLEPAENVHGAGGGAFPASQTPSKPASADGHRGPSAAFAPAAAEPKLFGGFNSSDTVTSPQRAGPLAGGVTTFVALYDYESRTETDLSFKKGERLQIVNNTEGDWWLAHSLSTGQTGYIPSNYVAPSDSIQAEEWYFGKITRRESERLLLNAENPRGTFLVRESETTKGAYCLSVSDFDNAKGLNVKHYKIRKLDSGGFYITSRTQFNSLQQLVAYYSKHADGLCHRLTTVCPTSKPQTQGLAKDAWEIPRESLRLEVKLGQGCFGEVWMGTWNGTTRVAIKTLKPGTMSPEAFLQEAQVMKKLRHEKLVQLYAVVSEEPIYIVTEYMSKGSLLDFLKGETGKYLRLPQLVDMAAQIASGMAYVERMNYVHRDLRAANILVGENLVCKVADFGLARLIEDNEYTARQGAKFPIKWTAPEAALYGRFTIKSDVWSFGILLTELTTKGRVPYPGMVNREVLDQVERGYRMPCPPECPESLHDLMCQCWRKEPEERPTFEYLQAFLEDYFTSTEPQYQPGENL

Row | IC50 | SMILES
1 | 48.2 nM | Cc1cccc(C)c1-c1cc(C)c2nc(Nc3cccc(S(=O)(=O)N4CCNCC4)c3)nnc2c1 [[7-(2,6-dimethyl-phenyl)-5-methyl-benzo[1,2,4]triazin-3-yl]-[3-(piperazine-1-sulfonyl)-phenyl]-amine]
2 | 137 nM | Cc1cccc(C)c1-c1cc(C)c2nc(Nc3ccc(S(=O)(=O)N4CCN(C)CC4)cc3)nnc2c1 [[7-(2,6-dimethyl-phenyl)-5-methyl-benzo[1,2,4]triazin-3-yl]-[4-(4-methyl-piperazine-1-sulfonyl)-phenyl]-amine]
3 | > 10000 nM | Cc1cccc(C)c1-c1cc(C)c2nc(Nc3ccccn3)nnc2c1 [[7-(2,6-dimethyl-phenyl)-5-methyl-benzo[1,2,4]triazin-3-yl]-pyridin-2-yl-amine]
4 | 36 nM | Cc1cccc(C)c1-c1cc(C)c2nc(Nc3ccncc3)nnc2c1 [[7-(2,6-dimethyl-phenyl)-5-methyl-benzo[1,2,4]triazin-3-yl]-pyridine-4-yl-amine]
5 | > 10000 nM | Cc1cccc(C)c1-c1cc(C)c2nc(Nc3cccc4cccnc34)nnc2c1 [[7-(2,6-dimethyl-phenyl)-5-methyl-benzo[1,2,4]triazin-3-yl]-quinolin-8-yl-amine]
6 | 12.6 nM | Cc1cccc(C)c1-c1cc(C)c2nc(Nc3ccc(OCCCN4CCCC4)cc3)nnc2c1 [[7-(2,6-dimethyl-phenyl)-5-methyl-benzo[1,2,4]triazin-3-yl]-{4-(3-pyrrolidin-1-yl-propoxy)-phenyl]-amine]
7 | 12.3 nM | Cc1cc2nc(Nc3ccc(OCCN4CCCC4)cc3)nnc2cc1-c1c(C)cccc1C [[7-(2,6-dimethyl-phenyl)-6-methyl-benzo[1,2,4]triazin-3-yl]-[4-(2-pyrrolidin-1-yl-ethoxy)-phenyl]-amine]
8 | 15 nM | Cc1cccc(C)c1-c1ccc2nc(Nc3ccc(OCCN4CCCC4)cc3)nnc2c1 [[7-(2,6-dimethyl-phenyl)-benzo[1,2,4]triazin-3-yl]-[4-(2-pyrrolidin-1-yl-ethoxy)-phenyl]-amine]
9 | 788 nM | COc1ccc(Cl)c(-c2cc(C)c3nc(Nc4ccc(OCCN5CCCC5)cc4)nnc3c2)c1 [[7-(2-chloro-5-methoxy-phenyl)-5-methyl-benzo[1,2,4]triazin-3-yl]-[4-(2-pyrrolidin-1-yl-ethoxy)-phenyl]-amine]
10 | 505 nM | COc1cccc(Cl)c1-c1cc(C)c2nc(Nc3ccc(OCCN4CCCC4)cc3)nnc2c1 [[7-(2-chloro-6-methoxy-phenyl)-5-methyl-benzo[1,2,4]triazin-3-yl]-[4-(2-pyrrolidin-1-yl-ethoxy)-phenyl]-amine]
11 | 207 nM | Cc1noc(C)c1-c1cc(C)c2nc(Nc3ccc(OCCN4CCCC4)cc3)nnc2c1 [[7-(3,5-dimethyl-isoxazol-4-yl)-5-methyl-benzo[1,2,4]triazin-3-yl]-[4-(2-pyrrolidin-1-yl-ethoxy)-phenyl]-amine]
12 | 1200 nM | COc1ccc(Cl)cc1-c1cc(C)c2nc(Nc3ccc(OCCN4CCCC4)cc3)nnc2c1 [[7-(5-chloro-2-methoxy-phenyl)-5-methyl-benzo[1,2,4]triazin-3-yl]-[4-(2-pyrrolidin-1-yl-ethoxy)-phenyl]-amine]
13 | > 10000 nM | Cc1cc2nc(Nc3ccc(S(=O)(=O)NCCN4CCCC4)cc3)nnc2cc1Br [[7-Bromo-6-methyl-benzo[1,2,4]triazin-3-ylamino]-N-(2-pyrrolidin-1-yl-ethyl)-benzene-4-sulfonamide]

Molecular target: Pdgfrβ (Homo sapiens (Human), UniProt P09619)
Sequence (P09619 33-1106): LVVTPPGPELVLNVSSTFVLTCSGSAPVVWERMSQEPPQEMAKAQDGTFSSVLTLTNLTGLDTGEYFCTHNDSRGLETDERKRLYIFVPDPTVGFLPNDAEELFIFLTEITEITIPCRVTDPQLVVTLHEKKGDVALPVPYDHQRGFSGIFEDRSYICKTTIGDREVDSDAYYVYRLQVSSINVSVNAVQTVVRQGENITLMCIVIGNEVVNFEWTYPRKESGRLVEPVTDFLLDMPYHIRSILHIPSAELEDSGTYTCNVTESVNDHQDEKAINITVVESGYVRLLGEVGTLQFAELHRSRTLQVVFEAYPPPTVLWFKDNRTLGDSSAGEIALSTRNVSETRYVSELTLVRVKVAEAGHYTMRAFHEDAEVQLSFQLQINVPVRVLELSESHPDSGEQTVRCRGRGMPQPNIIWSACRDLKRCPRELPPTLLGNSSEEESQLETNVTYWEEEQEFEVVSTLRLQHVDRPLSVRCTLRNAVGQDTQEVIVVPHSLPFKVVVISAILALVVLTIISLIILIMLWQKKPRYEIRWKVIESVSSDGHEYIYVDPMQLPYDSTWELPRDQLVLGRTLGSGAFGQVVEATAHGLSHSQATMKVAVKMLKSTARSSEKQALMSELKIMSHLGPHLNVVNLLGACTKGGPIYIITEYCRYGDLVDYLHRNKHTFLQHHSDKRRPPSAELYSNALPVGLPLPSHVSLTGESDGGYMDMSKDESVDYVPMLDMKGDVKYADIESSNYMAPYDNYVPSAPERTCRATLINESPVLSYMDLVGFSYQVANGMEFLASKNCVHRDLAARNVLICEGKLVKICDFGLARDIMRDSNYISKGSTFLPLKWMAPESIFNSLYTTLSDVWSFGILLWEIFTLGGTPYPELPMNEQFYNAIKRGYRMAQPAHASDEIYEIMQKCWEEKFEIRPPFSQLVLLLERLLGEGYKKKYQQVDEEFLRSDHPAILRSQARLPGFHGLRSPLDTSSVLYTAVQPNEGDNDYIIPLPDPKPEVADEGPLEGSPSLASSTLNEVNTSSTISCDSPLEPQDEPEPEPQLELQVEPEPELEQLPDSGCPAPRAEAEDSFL
Assay: Pdgfrβ kinase inhibition in vitro (luciferase-based residual ATP)
Type: biochemical
Conditions: 500 nM ATP, PTK2 peptide, 60 minutes at 37 C; read-out: PDGFR IC50
Procedure: as §1
Pdgfrβ (0.16 ug/well, Panvera/Invitrogen) 500 nM ATP and the PTK2 peptide (700 uM) were combined with compound and reaction buffer as noted above for src. The reaction was incubated for 60 minutes at 37 C, and the residual ATP concentration was determined using the luciferase-based technique also noted above.
as §2

Row | IC50 | SMILES
14 | 1.7 nM | Cc1cc(-c2cc(O)ccc2Cl)cc2nnc(Nc3ccc(S(=O)(=O)NCCN4CCCC4)cc3)nc12
15 | 1.9 nM | Cc1cc2nc(Nc3ccc(S(=O)(=O)NCCN4CCCC4)cc3)nnc2cc1-c1cc(O)ccc1Cl
16 | 2.9 nM | Cc1cc(-c2cc(O)ccc2Cl)cc2nnc(Nc3ccc(S(=O)(=O)CCCN4CCCC4)cc3)nc12
17 | 41.1 nM | Cc1cc(O)cc(C)c1-c1cc(C)c2nc(Nc3ccc(OCCN4CCCC4)cc3)nnc2c1
18 | 60 nM | Cc1cccc(C)c1-c1cc(C)c2nc(Nc3nc(C(=O)NCCN4CCCC4)cs3)nnc2c1 [2-[7-(2,6-dimethyl-phenyl)-5-methyl-benzo[1,2,4]triazin-3-ylamino]-thiazole-4-carboxylic acid (2-pyrrolidin-1-yl-ethyl)-amide]
19 | 16.3 nM | Cc1cccc(C)c1-c1cc(C)c2nc(Nc3cccc(S(N)(=O)=O)c3)nnc2c1 [3-[7-(2,6-dimethyl-phenyl)-5-methyl-benzo[1,2,4]triazin-3-ylamino]-benzenesulfonamide]
20 | 5.3 nM | Cc1cc(-c2cc(O)ccc2Cl)cc2nnc(Nc3cccc(C(=O)NCCN(C)C)c3)nc12 [3-[7-(2-chloro-5-hydroxy-phenyl)-5-methyl-benzo[1,2,4]triazin-3-ylamino]-N-(2-dimethylamino-ethyl)-benzamide]
21 | 7.4 nM | Cc1cc2nc(Nc3ccc(OCCN4CCCC4)cc3)nnc2cc1-c1cccc(O)c1 [3-{6-methyl-3-[4-(2-pyrrolidin-1-yl-ethoxy)-phenylamino]-benzo[1,2,4]triazin-7-yl}-phenol]
22 | 39.3 nM | COc1cc2nc(Nc3ccc(S(=O)(=O)NCCN4CCCC4)cc3)nnc2cc1-c1ccccc1C [4-(6-methoxy-7-o-tolyl-benzo[1,2,4]triazin-3-ylamino)-N-(2-pyrrolidin-1-yl-ethyl)-benzenesulfonamide]
23 | 8 nM | Cc1cc(-c2c(Cl)ccc(O)c2Cl)cc2nnc(Nc3ccc(S(=O)(=O)NCCN4CCCC4)cc3)nc12 [4-[7-(2,6-dichloro-3-hydroxy-phenyl)-5-methyl-benzo[1,2,4]triazin-3-ylamino]-N-(2-pyrrolidin-1-yl-ethyl)-benzenesulfonamide]
24 | 3.1 nM | Cc1cc(-c2cc(O)ccc2Cl)cc2nnc(Nc3ccc(S(=O)(=O)N(C)CCN4CCCC4)cc3)nc12 [4-[7-(2-chloro-5-hydroxy-phenyl)-5-methyl-benzo[1,2,4]triazin-3-ylamino]-N-methyl-N-(2-pyrrolidin-1-yl-ethyl)-benzenesulfonamide]
25 | 20.8 nM | Cc1cc(-c2cc(O)ccc2Cl)cc2nnc(Nc3cccc(N(C)C)c3)nc12 [4-chloro-3-[3-(3-dimethylamino-phenylamino)-5-methyl-benzo[1,2,4]triazin-7-yl]-phenol]
26 | 2.1 nM | Cc1cc(-c2cc(O)ccc2Cl)cc2nnc(Nc3ccc(N4CCOCC4)nc3)nc12 [4-chloro-3-[5-methyl-3-(6-morpholin-4-yl-pyridin-3-ylamino)-benzo[1,2,4]triazin-7-yl]-phenol]
27 | 23.5 nM | Cc1cc(-c2cc(O)ccc2Cl)cc2nnc(Nc3cccnc3)nc12 [4-chloro-3-[5-methyl-3-(pyridin-3-ylamino)-benzo[1,2,4]triazin-7-yl]-phenol]
28 | 2.8 nM | Cc1cc(-c2cc(O)ccc2Cl)cc2nnc(Nc3ccc(S(=O)(=O)C4CCNCC4)cc3)nc12 [4-chloro-3-{5-methyl-3-[4-(piperidine-4-sulfonyl)-phenylamino]-benzo[1,2,4]triazin-7-yl}-phenol]
29 | 5.7 nM | Cc1cc2nc(Nc3ccc(OCCN4CCCC4)cc3)nnc2cc1-c1cc(O)ccc1Cl [4-chloro-3-{6-methyl-3-[4-(2-pyrrolidin-1-yl-ethoxy)phenylamino]-benzo[1,2,4]triazin-7-yl}-phenol]
30 | 117 nM | Cc1cccc(C)c1-c1cc(C)c2nc(Nc3ccc(C(=O)NCCN4CCCC4)o3)nnc2c1 [5-[7-(2,6-dimethyl-phenyl)-5-methyl-benzo[1,2,4]triazin-3-ylamino]-furan-2-carboxylic acid (2-pyrrolidin-1-yl-ethyl)-amide]
